Laboratory results: paper PMC5939605, “Highly luminescent, biocompatible ytterbium(III) complexes as near-infrared fluorophores for living cell imaging” (Chemical Science, 2018)
Where “and” joins values, the source holds several entries; their conditions need not be identical. Identical values can stand only once.

Experiments:
[1] = set-up: method as in PMID 12895128; conditions: in CH2Cl2 ref 53; cited from earlier work
[2] = set-up: method as in PMID 22908122; conditions: in CHCl3 ref 59; cited from earlier work
[3] = NIR luminescence decay lifetime monitored at 980 nm; assay type: physicochemical; conditions: for Decay lifetime (τobs): bovine albumin (BSA), air-saturated, 0.1% DMSO
Description: Emission, excitation spectra and lifetime were measured on an Edinburgh Analytical Instruments FLS980 lifetime and steady state spectrometer equipped with a 450 W Xe lamp, a 60 W microsecond flash lamp, PMT R928 for the visible emission spectrum, HAMAMATSU R5509-73 PMT with a C9940-02 cooler for the NIR emission spectrum and luminescence lifetime. Excitation and emission spectra were corrected for instrumental functions (including the correction for detector, gratings etc.). All luminescence decays were exponentially tail-fitted by monoexponential functions without deconvolution for the negligible instrumental reference function in the NIR region.

[4] = n-octanol/water partition coefficient (log P); assay type: physicochemical
Description: Equal volumes (2000 mL) of n-octanol and water were thoroughly mixed using an oscillator and separated after 24 h. Yb^3+ complex (0.1 mg each) was then dissolved in 40 mL of the separated n-octanol and the solution and 40 mL of water (previously separated from the mixture) was added. The new water–octanol system was allowed to equilibrate for additional 24 h. After separation, both fractions were analyzed by UV-vis spectra. The log P values were calculated with the following equation:[80]1 log P = log(Coctanol/Cwater)where Coctanol and Cwater refer to the concentrations of Yb^3+ complexes in n-octanol and water, respectively.

[5] = NIR luminescence quantum yield, comparative method vs YbTPP(LOEt); assay type: physicochemical
Description: Quantum yields in solution were determined using a comparative method and the equation: Φs/Φr = (Gs/Gr) × (ηs^2/ηr^2), where the subscripts r and s denote the reference and sample respectively, Φ is the quantum yield, G is the slope from the plot of integrated emission intensity vs. absorbance, and η is the refractive index of the solvent.[79] The reference was YbTPP(LOEt) in CH2Cl2 ([…]).[53] Generally, YbTPP(LOEt) and the solution of Yb^3+ complex with 4 different concentrations were firstly prepared in the corresponding solvents. The absorbance of all the solutions at 410 nm was recorded on an Agilent 8453 UV-vis spectrometer equipped with an Agilent 89090A thermostat (±0.1 °C) and NIR emissions were recorded on an Edinburgh Analytical Instruments FLS980 lifetime and steady state spectrometer with the excitation wavelength at 410 nm under identical conditions. According to the ratio of the slope GYb – x/Gr (x = 1–5, 2c–5c), the relative quantum yield of Yb^3+ complexes could be obtained according to the equation described above. The absorbance values of all the samples and references are below 0.1 and the absorbance values undergo background correction by subtracting the average over a range from 800 to 820 nm. The integrated emission intensity integrated from 880 nm to 1150 nm was obtained by subtracting the blank (integrated emission intensity with only the pure solvent under identical conditions). The estimated error for the quantum yield measurements is 15%. For the quantum yield measured in degassed solution, solutions of Yb^3+ complexes with 4 different concentrations were degassed via 5 freeze–pump–thaw cycles. Then the measurement and calculation were the same as above.

[6] = Stability in solution and aqueous media (absorption / NIR luminescence, dark and 405 nm laser); assay type: physicochemical
Source text: We also measured the ^2D NMR of Yb-4 in CH3OH as an example (Fig. S75 ^†) and only one single peak was observed.
Fig. 2 (a) Spectroscopic evaluation of Yb-4 photostability in water, PBS and FBS with 0.1% DMSO under irradiation of a 405 nm laser (0.2 W cm^–2) (inset: dark stability); (b) spectroscopic evaluation of Yb-4 and Yb-4c stabilities in pH = 5 PBS with 0.1% DMSO under irradiation of a 405 nm laser (0.2 W cm^–2). Emission intensity values were referenced to the emission intensity of Yb^3+ (980 nm) at 0 h.

[7] = DMSO, air-equil., monitored at 980 nm
[8] = DMSO, degassed, monitored at 980 nm
[9] = H2O with 0.1% DMSO, air-equil., monitored at 980 nm
[10] = H2O with 0.1% DMSO, degassed, monitored at 980 nm

| Compound | τobs [3, 7] | τobs [3, 8] | τobs [3, 9] | τobs [3, 10] | Decay lifetime (τobs) ([3]; monitored at 980 nm) | log Po/w [4] | ΦYb ([5]; DMSO, air-equil.) | ΦYb ([5]; DMSO, degassed) | ΦYb ([5]; H2O with 0.1% DMSO, air-equil.) | ΦYb ([5]; H2O with 0.1% DMSO, degassed) | other results |
| --- | --- | --- | --- | --- | --- | --- | --- | --- | --- | --- | --- |
| 5,10,15,20-tetraphenylporphyrin-Yb(III)-[(cyclopentadienyl)tris(di(ethyl)phosphito)cobaltate] [YbTPP(LOEt)] |  |  |  |  |  |  |  |  |  |  | NIR luminescence quantum yield of reference [1]: 0.024 |
| C1=Cc2nc1c(-c1ccccc1)c1nc(c(-c3ccccc3)c3ccc([nH]3)c(-c3ccccc3)c3ccc([nH]3)c2-c2ccccc2)C=C1 [TPP, tetraphenylporphyrin] |  |  |  |  |  |  |  |  |  |  | singlet oxygen quantum yield of reference (ΦΔ) [2]: 0.55 |
| OC[C@H]1O[C@@H](Oc2ccc(C3=C4N=C(C(F)=C4F)C(c4ccc(O[C@@H]5O[C@H](CO)[C@@H](O)[C@H](O)[C@H]5O)cc4)=c4c(F)c(F)c5[n]4[Yb+][n]4c3c(F)c(F)c4C(c3ccc(O[C@@H]4O[C@H](CO)[C@@H](O)[C@H](O)[C@H]4O)cc3)=C3N=C(C(F)=C3F)C=5c3ccc(O[C@@H]4O[C@H](CO)[C@@H](O)[C@H](O)[C@H]4O)cc3)cc2)[C@H](O)[C@@H](O)[C@@H]1O.[2H]C([2H])([2H])O[P](=O)(OC([2H])([2H])[2H])[Co-]([CH]1C=CC=C1)([P](=O)(OC([2H])([2H])[2H])OC([2H])([2H])[2H])[P](=O)(OC([2H])([2H])[2H])OC([2H])([2H])[2H] [Yb-1] | 161(5) μs | 165(4) μs | 95(2) μs | 96(3) μs | 100(3) | 1.32 | 16(2) % | 16(2) % | 7.6(0.4) % | 7.7(0.5) % |  |
| O=C(O)c1ccc(C2=C3C=CC(=N3)C(c3c(F)c(F)c(F)c(F)c3F)=c3ccc4[n]3[Yb+][n]3c2ccc3C(c2c(F)c(F)c(F)c(F)c2F)=C2C=CC(=N2)C=4c2c(F)c(F)c(F)c(F)c2F)cc1.[2H]C([2H])([2H])O[P](=O)(OC([2H])([2H])[2H])[Co-]([CH]1C=CC=C1)([P](=O)(OC([2H])([2H])[2H])OC([2H])([2H])[2H])[P](=O)(OC([2H])([2H])[2H])OC([2H])([2H])[2H] [Yb-2c] | 52(2) μs | 52(2) μs | 38(1) μs | 41(2) μs |  | 1.26 | 6.2(0.2) % | 6.0(0.2) % | 2.5(0.2) % | 2.6(0.2) % |  |
| FC1=C(F)C2=C(c3ccc(C[P+](c4ccccc4)(c4ccccc4)c4ccccc4)cc3)c3c(F)c(F)c4[n]3[Yb+][n]3c(c(F)c(F)c3=C(c3ccc(C[P+](c5ccccc5)(c5ccccc5)c5ccccc5)cc3)C3=NC(=C4c4ccc(C[P+](c5ccccc5)(c5ccccc5)c5ccccc5)cc4)C(F)=C3F)=C(c3ccc(C[P+](c4ccccc4)(c4ccccc4)c4ccccc4)cc3)C1=N2.[2H]C([2H])([2H])O[P](=O)(OC([2H])([2H])[2H])[Co-]([CH]1C=CC=C1)([P](=O)(OC([2H])([2H])[2H])OC([2H])([2H])[2H])[P](=O)(OC([2H])([2H])[2H])OC([2H])([2H])[2H].[Cl-].[Cl-].[Cl-].[Cl-] [Yb-3] | 205(2) μs | 213(5) μs | 56(2) μs | 58(3) μs | 90(2) | 0.56 | 20(1) % | 21(2) % | 5.1(0.2) % | 5.2(0.3) % |  |
| C1=CC2=C(c3ccc(C[P+](c4ccccc4)(c4ccccc4)c4ccccc4)cc3)c3ccc4[n]3[Yb+][n]3c(ccc3=C(c3ccc(C[P+](c5ccccc5)(c5ccccc5)c5ccccc5)cc3)C3=NC(=C4c4ccc(C[P+](c5ccccc5)(c5ccccc5)c5ccccc5)cc4)C=C3)=C(c3ccc(C[P+](c4ccccc4)(c4ccccc4)c4ccccc4)cc3)C1=N2.[2H]C([2H])([2H])O[P](=O)(OC([2H])([2H])[2H])[Co-]([CH]1C=CC=C1)([P](=O)(OC([2H])([2H])[2H])OC([2H])([2H])[2H])[P](=O)(OC([2H])([2H])[2H])OC([2H])([2H])[2H].[Cl-].[Cl-].[Cl-].[Cl-] [Yb-3c] | 49(1) μs | 51(2) μs | 25(1) μs | 26(2) μs |  | 0.24 | 5.6(0.2) % | 5.6(0.2) % | 1.4(0.1) % | 1.4(0.1) % |  |
| C[N+]1(C)CC2(F)C3=NC(=C(c4c(F)c(F)c(F)c(F)c4F)c4c(F)c(F)c5[n]4[Yb+][n]4c(c(F)c(F)c4=C3c3c(F)c(F)c(F)c(F)c3F)=C(c3c(F)c(F)c(F)c(F)c3F)C3=NC(=C5c4c(F)c(F)c(F)c(F)c4F)C(F)=C3F)C2(F)C1.[2H]C([2H])([2H])O[P](=O)(OC([2H])([2H])[2H])[Co-]([CH]1C=CC=C1)([P](=O)(OC([2H])([2H])[2H])OC([2H])([2H])[2H])[P](=O)(OC([2H])([2H])[2H])OC([2H])([2H])[2H].[I-] (centres unmarked) [Yb-4] | 173(4) μs | 187(8) μs | 140 μs and 140(5) μs | 142(5) μs | 145(3) | 1.34 | 17(2) % | 18(2) % | 10% and 10(1) % | 10(1) % | τobs ([3]; ethanol, air-equil., λex = 410 nm, 980 nm): 86(4) μs; τobs ([3]; ethanol, degassed, λex = 410 nm, 980 nm): 99(2) μs; τobs ([3]; glycerol, air-equil., λex = 410 nm, 980 nm): 192(4) μs; τobs ([3]; glycerol, degassed, λex = 410 nm, 980 nm): 195(5) μs; τobs ([3]; i-propanol, air-equil., λex = 410 nm, 980 nm): 110(5) μs; τobs ([3]; i-propanol, degassed, λex = 410 nm, 980 nm): 120(3) μs; τobs ([3]; methanol, air-equil., λex = 410 nm, 980 nm): 68(2) μs; τobs ([3]; methanol, degassed, λex = 410 nm, 980 nm): 74(3) μs; τobs ([3]; t-butanol, air-equil., λex = 410 nm, 980 nm): 117(4) μs; τobs ([3]; t-butanol, degassed, λex = 410 nm, 980 nm): 127(3) μs; ΦYb and τobs in H2O relative to Yb-4c ([5]; H2O, air-saturated): 4 fold; photostability ([6]; pH = 5 PBS with 0.1% DMSO, 405 nm laser 0.2 W cm^–2): photostable over 4 h; NIR luminescence under continuous irradiation ([6]; water, PBS and FBS with 0.1% DMSO, 405 nm laser, 0.2 W cm^–2): did not significantly change; dark stability ([6]; water, PBS and FBS with 0.1% DMSO, NIR luminescence): high dark stability over 48 h |
| C[N+]1(C)CC2C3=NC(=C(c4c(F)c(F)c(F)c(F)c4F)c4ccc5[n]4[Yb+][n]4c(ccc4=C3c3c(F)c(F)c(F)c(F)c3F)=C(c3c(F)c(F)c(F)c(F)c3F)C3=NC(=C5c4c(F)c(F)c(F)c(F)c4F)C=C3)C2C1.[2H]C([2H])([2H])O[P](=O)(OC([2H])([2H])[2H])[Co-]([CH]1C=CC=C1)([P](=O)(OC([2H])([2H])[2H])OC([2H])([2H])[2H])[P](=O)(OC([2H])([2H])[2H])OC([2H])([2H])[2H].[I-] (centres unmarked) [Yb-4c] | 49(2) μs | 50(2) μs | 35 μs and 35(1) μs | 38(2) μs |  | 1.33 | 5.4(0.2) % | 5.5(0.2) % | 2.3% and 2.3(0.2) % | 2.4(0.1) % | photobleaching ([6]; pH = 5 PBS with 0.1% DMSO, 405 nm laser 0.2 W cm^–2, 4 h): 55% |
